This note sets out measurements from patent publication US7335722B2, “Peptides used as angiotensin converting enzyme inhibitor and preparation process thereof” (Food Industry Research and Development Institute, priority 1999, dated 2008).

This test has as its system ACE. Kind of test: ACE inhibitory activity (IC50) of the isolated peptides, method not specified. Type of test: biochemical. On the procedure:
The five more apparent peaks in FIG. 4 are designated as A3-B4-C6-D1 to D5. The sequences of them are determined by sequence-determining machine. Five short-chain peptides, Val-Leu-Pro (VLP), Ilu-Leu-Pro (ILP), Val-Leu-Tyr (VLY), Val-Leu-Pro-Pro (VLPP) and Ilu-Leu-Pro-Pro (ILPP) are obtained. The ACE inhibitory activity of them (IC50) is determined.

A word on the pIC50: it is the negative decadic logarithm of the IC50, by convention in mol/L. Low readings indicate a large IC50, high ones a small IC50.

pIC50: −log10 of the molar value.

In turn, Ilu-Leu-Pro-Pro (ILPP) showed a pIC50 of 3.76. As to VLPP [Val-Leu-Pro-Pro], the pIC50 is 4.01.
